Experimental data reported in patent publication US9433645B2, “Method and composition for preventing stem cell disruption and aggregation” (R BIO CO., LTD., priority 2012, dated 2016).

Experiments:
Assay type in all cases: cell-based, human
[1] = system: adipose tissue-derived mesenchymal stem cells; assay: Survival rate of stem cells suspended in normal saline containing acetylsalicylic acid; settings: for Survival rate: 1.0×10^7 cells
Protocol: After the adipose tissue-derived mesenchymal stem cells isolated in Example 1 were treated with trypsin, the trypsin treated adipose tissue-derived mesenchymal stem cells (1.0×10^7 cells) were suspended in normal saline containing acetylsalicylic acid (Sigma; A5376) at each concentration, and survival rates at 12 and 24 hours were observed. The normal saline containing acetylsalicylic acid was prepared by adding acetylsalicylic acid to normal saline at each concentration and performing sonication at 37 °C for 30 minutes.

[2] = system: adipose tissue-derived mesenchymal stem cells; assay: FACS characteristics (marker expression rate) of stem cells after suspension in normal saline containing aspirin lysine
Protocol: (§1) After the adipose tissue-derived mesenchymal stem cells isolated in Example 1 were treated with trypsin, the trypsin treated adipose tissue-derived mesenchymal stem cells (1.0×10^6 cells) were suspended in normal saline containing aspirin lysine (Shinpoong) at each concentration and cultured for 5 days, and the number of cells was measured. Then, after cold-temperature storage for 24 hours, FACS was measured, thereby confirming characteristics of the cells.

[3] = system: adipose tissue-derived mesenchymal stem cells; assay: Survival, number of cells and aggregation of stem cells suspended in normal saline containing aspirin lysine
Protocol: as §1

[4] = FACS, aspirin 0.1 mg/10 ml, after cold-temperature storage for 24 hours

Structure (SMILES)	Survival rate ([1]; 12 hours, aspirin 1 mg/10 ml normal saline) [%]	Survival rate ([1]; 12 hours, aspirin 2 mg/10 ml normal saline) [%]	Survival rate ([1]; 12 hours, aspirin 5 mg/10 ml normal saline) [%]	Survival rate ([1]; 24 hours, aspirin 1 mg/10 ml normal saline) [%]	Survival rate ([1]; 24 hours, aspirin 2 mg/10 ml normal saline) [%]	Survival rate ([1]; 24 hours, aspirin 5 mg/10 ml normal saline) [%]	Cytotoxic effect ([1]; aspirin added to 10 ml of normal saline 1.0 mg or more)	Expression rate CD29 [2, 4] [%]	Expression rate CD31 [2, 4] [%]	Expression rate CD44 [2, 4] [%]	Expression rate CD45 [2, 4] [%]	Characteristics of the stem cells (FACS) ([2]; stored at a cold temperature for 24 hours after suspension in normal saline containing aspirin for 24 hours)	Change in the number of cells ([3]; after culturing for 5 days)	Cell survival rate depending on the concentration ([3]; normal saline containing aspirin lysine at each concentration)	Aggregation on storage ([3]; storing the stem cells in normal saline containing aspirin)
CC(=O)Oc1ccccc1C(=O)O [acetylsalicylic acid]	50	20	10	10	10	5	a cytotoxic effect was exhibited								
CC(=O)Oc1ccccc1C(=O)O [aspirin lysine]								99.97	0.21	99.25	0.17	no influence of the concentration of aspirin	almost no change in the number of cells	slightly decreased, but the decrease was not significant	aggregation may be prevented without causing changes in the characteristics of cells
